Assay results reported in the kinase profiling compilation of Christmann-Franck et al. (2016).

Experiments:
Test in all cases: KINOMEscan competition binding
Settings in all cases: compound 10.0 µM
CDKL5 (human) = CDKL5 (human) (UniProt O76039)
CDK11B (human) = CDK11B (human) (UniProt P21127)
[1] = target: JAK1 JH1 catalytic (human) (UniProt P23458)
GSK3B (human) = GSK3B (human) (UniProt P49841)
CSNK2A1 (human) = CSNK2A1 (human) (UniProt P68400)
FGFR3 (human) = FGFR3 (human) (UniProt P22607)
HIPK4 (human) = HIPK4 (human) (UniProt Q8NE63)
CSNK1E (human) = CSNK1E (human) (UniProt P49674)
SRC (human) = SRC (human) (UniProt P12931)
CAMK2D (human) = CAMK2D (human) (UniProt Q13557)
MAP2K6 (human) = MAP2K6 (human) (UniProt P52564)
CSNK1G2 (human) = CSNK1G2 (human) (UniProt P78368)
Sequence of CSNK1G2 (human) (P78368 whole entry, looked up): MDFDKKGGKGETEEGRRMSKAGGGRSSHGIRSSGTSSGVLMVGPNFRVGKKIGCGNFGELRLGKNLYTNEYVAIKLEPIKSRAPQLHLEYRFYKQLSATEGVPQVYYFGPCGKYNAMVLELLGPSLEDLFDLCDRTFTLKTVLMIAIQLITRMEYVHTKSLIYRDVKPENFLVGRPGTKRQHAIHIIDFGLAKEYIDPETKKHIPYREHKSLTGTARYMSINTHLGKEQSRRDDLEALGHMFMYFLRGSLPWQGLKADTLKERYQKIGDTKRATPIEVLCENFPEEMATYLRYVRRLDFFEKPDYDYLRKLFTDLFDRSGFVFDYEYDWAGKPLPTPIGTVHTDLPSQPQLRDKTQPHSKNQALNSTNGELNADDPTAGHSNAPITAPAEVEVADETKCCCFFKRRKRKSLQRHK

WEE1 (human) = WEE1 (human) (UniProt P30291)
SIK1 (human) = SIK1 (human) (UniProt P57059)
PTK2 (human) = PTK2 (human) (UniProt Q05397)
ICK (human) = ICK (human) (UniProt Q9UPZ9)
Sequence of ICK (human) (Q9UPZ9 whole entry, looked up): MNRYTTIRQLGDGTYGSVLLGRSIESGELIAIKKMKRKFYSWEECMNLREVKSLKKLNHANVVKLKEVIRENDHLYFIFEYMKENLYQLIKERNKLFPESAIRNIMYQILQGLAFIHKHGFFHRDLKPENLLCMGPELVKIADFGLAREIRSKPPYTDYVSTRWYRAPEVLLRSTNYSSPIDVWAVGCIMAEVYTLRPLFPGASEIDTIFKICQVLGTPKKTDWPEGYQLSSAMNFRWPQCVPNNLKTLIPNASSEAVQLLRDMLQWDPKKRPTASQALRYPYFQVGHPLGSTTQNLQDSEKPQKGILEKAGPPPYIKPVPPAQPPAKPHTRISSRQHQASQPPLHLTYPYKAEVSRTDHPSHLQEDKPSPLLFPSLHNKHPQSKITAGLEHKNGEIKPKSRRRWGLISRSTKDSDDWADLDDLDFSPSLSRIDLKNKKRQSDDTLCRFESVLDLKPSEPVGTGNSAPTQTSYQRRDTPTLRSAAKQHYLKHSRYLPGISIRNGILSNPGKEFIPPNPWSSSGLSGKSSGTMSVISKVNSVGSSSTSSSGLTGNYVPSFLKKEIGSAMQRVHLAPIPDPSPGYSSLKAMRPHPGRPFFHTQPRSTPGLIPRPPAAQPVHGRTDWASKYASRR

RIOK1 (human) = RIOK1 (human) (UniProt Q9BRS2)
[2] = tested on: ABL1 (human), P00519 [H396P]
TNK1 (human) = TNK1 (human) (UniProt Q13470)
NTRK1 (human) = NTRK1 (human) (UniProt P04629)
FER (human) = FER (human) (UniProt P16591)
EPHA7 (human) = EPHA7 (human) (UniProt Q15375)
EPHA2 (human) = EPHA2 (human) (UniProt P29317)
MAPK9 (human) = MAPK9 (human) (UniProt P45984)
MAP3K11 (human) = MAP3K11 (human) (UniProt Q16584)
SIK3 (human) = SIK3 (human) (UniProt Q9Y2K2)
Sequence of SIK3 (human) (Q9Y2K2 whole entry, looked up): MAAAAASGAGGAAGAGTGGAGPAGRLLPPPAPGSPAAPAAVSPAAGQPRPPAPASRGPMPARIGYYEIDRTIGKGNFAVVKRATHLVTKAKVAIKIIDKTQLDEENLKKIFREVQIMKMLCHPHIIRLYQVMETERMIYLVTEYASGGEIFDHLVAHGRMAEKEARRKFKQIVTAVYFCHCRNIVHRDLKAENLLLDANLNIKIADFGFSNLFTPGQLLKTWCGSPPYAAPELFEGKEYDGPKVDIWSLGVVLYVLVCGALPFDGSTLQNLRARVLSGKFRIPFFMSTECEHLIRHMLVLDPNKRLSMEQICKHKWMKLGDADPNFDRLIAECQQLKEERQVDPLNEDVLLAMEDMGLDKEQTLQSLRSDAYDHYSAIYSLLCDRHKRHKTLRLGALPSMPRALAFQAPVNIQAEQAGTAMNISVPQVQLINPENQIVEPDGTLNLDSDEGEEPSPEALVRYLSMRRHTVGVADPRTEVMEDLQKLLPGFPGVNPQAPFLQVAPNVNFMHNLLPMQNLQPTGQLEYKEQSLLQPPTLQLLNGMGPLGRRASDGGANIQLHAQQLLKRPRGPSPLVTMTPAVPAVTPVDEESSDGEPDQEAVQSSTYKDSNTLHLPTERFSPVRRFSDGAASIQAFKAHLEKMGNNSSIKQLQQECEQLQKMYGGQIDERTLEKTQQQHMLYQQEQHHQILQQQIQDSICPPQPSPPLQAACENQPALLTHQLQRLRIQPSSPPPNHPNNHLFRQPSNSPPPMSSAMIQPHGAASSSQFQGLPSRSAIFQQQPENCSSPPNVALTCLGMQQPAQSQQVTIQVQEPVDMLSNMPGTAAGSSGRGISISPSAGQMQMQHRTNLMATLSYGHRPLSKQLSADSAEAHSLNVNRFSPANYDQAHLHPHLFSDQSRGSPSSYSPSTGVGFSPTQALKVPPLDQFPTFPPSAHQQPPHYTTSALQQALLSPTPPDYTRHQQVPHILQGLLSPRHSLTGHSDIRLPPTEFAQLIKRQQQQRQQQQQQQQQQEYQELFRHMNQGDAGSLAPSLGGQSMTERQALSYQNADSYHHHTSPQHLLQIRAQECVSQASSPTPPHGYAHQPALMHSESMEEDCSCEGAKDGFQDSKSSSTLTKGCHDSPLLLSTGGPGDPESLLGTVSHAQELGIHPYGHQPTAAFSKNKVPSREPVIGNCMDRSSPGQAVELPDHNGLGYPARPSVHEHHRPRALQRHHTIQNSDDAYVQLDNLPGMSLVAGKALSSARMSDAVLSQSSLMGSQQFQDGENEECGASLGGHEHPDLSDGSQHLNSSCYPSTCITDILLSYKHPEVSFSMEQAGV

MAP3K10 (human) = MAP3K10 (human) (UniProt Q02779)
NTRK3 (human) = NTRK3 (human) (UniProt Q16288)
CDK16 (human) = CDK16 (human) (UniProt Q00536)
DAPK3 (human) = DAPK3 (human) (UniProt O43293)
PIK3CA (human) = PIK3CA (human) (UniProt P42336)
AKT3 (human) = AKT3 (human) (UniProt Q9Y243)
MAP3K3 (human) = MAP3K3 (human) (UniProt Q99759)
Sequence of MAP3K3 (human) (Q99759 whole entry, looked up): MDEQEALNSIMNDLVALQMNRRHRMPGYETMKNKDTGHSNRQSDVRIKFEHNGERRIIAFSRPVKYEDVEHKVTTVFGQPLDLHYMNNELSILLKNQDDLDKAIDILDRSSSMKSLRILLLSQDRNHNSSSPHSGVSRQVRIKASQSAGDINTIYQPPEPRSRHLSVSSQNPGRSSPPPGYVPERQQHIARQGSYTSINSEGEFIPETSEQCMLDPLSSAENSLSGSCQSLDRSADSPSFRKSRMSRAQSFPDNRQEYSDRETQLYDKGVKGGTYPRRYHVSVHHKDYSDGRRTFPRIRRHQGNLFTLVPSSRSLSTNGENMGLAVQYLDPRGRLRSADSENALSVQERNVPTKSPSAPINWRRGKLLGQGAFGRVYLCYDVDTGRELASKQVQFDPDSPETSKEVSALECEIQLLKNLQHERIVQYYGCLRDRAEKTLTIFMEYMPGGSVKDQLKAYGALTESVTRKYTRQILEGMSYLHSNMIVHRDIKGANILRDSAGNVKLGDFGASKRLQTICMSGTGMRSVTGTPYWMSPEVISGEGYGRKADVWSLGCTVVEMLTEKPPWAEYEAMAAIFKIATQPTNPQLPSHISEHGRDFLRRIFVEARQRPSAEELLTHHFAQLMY

PRKD3 (human) = PRKD3 (human) (UniProt O94806)
MYLK3 (human) = MYLK3 (human) (UniProt Q32MK0)
CDK7 (human) = CDK7 (human) (UniProt P50613)
MERTK (human) = MERTK (human) (UniProt Q12866)
STK38L (human) = STK38L (human) (UniProt Q9Y2H1)
DYRK2 (human) = DYRK2 (human) (UniProt Q92630)
GSK3A (human) = GSK3A (human) (UniProt P49840)
Sequence of GSK3A (human) (P49840 whole entry, looked up): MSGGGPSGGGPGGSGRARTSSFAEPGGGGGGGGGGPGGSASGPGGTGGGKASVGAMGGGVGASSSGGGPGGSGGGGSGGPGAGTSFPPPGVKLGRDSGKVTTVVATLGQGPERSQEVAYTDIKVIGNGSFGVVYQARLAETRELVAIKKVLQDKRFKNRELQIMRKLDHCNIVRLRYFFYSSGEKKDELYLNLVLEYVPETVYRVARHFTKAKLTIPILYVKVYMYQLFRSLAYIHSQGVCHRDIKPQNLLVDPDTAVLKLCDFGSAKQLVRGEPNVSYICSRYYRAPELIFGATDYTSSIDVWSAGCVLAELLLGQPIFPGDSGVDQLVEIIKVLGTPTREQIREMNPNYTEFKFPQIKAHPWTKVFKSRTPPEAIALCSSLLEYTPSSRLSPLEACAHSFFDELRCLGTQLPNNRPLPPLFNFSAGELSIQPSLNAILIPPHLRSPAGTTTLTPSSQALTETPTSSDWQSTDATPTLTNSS

NEK2 (human) = NEK2 (human) (UniProt P51955)
BMPR1B (human) = BMPR1B (human) (UniProt O00238)

Sequence of JAK1 JH1 catalytic (human) (P23458 whole entry, looked up): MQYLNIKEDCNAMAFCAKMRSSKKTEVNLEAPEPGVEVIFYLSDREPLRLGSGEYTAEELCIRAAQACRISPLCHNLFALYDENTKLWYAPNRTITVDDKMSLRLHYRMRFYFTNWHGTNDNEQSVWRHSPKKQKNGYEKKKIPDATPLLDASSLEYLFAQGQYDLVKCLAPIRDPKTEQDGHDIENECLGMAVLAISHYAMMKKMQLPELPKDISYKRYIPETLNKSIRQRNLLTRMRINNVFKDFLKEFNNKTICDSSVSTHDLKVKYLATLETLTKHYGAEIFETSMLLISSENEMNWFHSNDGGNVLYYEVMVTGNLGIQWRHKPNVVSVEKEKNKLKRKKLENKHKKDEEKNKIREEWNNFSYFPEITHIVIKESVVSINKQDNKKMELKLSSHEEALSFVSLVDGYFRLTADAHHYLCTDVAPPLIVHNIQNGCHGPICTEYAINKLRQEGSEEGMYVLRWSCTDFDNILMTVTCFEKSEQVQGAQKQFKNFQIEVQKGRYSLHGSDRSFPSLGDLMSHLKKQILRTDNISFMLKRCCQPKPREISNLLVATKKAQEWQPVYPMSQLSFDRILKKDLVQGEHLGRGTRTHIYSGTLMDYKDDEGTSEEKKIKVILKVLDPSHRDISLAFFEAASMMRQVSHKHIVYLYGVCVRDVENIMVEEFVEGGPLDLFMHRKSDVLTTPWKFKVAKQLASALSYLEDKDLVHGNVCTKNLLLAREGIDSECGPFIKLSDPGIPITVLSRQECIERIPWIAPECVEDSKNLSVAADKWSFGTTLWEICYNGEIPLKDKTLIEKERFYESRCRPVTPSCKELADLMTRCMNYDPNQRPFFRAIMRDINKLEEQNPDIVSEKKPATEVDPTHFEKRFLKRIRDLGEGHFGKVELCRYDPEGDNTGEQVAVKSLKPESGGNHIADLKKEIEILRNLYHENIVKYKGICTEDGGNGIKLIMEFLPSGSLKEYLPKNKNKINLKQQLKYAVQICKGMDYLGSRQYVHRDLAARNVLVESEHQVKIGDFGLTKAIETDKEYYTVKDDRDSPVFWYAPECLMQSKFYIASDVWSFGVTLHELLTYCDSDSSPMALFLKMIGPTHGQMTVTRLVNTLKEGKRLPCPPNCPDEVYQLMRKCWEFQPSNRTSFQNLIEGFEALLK
Sequence of GSK3B (human) (P49841 whole entry, looked up): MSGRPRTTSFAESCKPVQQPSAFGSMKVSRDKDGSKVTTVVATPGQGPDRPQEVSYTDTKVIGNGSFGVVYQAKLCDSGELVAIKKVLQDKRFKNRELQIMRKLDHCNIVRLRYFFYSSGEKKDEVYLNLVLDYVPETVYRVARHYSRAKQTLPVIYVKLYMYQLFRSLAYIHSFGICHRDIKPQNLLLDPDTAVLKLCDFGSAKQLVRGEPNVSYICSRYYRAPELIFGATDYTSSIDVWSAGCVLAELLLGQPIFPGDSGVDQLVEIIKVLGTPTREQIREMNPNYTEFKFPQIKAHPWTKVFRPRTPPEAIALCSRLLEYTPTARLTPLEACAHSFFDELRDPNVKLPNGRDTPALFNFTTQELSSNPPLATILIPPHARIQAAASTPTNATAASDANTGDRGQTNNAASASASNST

**Q.** `Cc1cnc(-c2cnc(NCCNc3ccc(C#N)cn3)nc2-c2ccc(Cl)cc2Cl)[nH]1` was tested. Which kinase still bound, per cent of control (CDKL5 (human)) did it give?
**A.** 100%

**Q.** And the kinase still bound, per cent of control (CDK11B (human))?
**A.** 100%

**Q.** And the kinase still bound, per cent of control [1]?
**A.** 94%

**Q.** And the kinase still bound, per cent of control (GSK3B (human))?
**A.** 1%

**Q.** And the kinase still bound, per cent of control (CSNK2A1 (human))?
**A.** 65%

**Q.** And the kinase still bound, per cent of control (FGFR3 (human))?
**A.** 100%

**Q.** What about the kinase still bound, per cent of control (HIPK4 (human)) of the same molecule?
**A.** 43%

**Q.** What about the kinase still bound, per cent of control (CSNK1E (human)) of the same molecule?
**A.** 76%

**Q.** And the kinase still bound, per cent of control (SRC (human))?
**A.** 100%

**Q.** What about the kinase still bound, per cent of control (CAMK2D (human)) of the same molecule?
**A.** 100%

**Q.** What about the kinase still bound, per cent of control (MAP2K6 (human)) of the same molecule?
**A.** 73%

**Q.** What about the kinase still bound, per cent of control (CSNK1G2 (human)) of the same molecule?
**A.** 59%

**Q.** And the kinase still bound, per cent of control (WEE1 (human))?
**A.** 98%

**Q.** What about the kinase still bound, per cent of control (SIK1 (human)) of the same molecule?
**A.** 100%

**Q.** And the kinase still bound, per cent of control (PTK2 (human))?
**A.** 96%

**Q.** And the kinase still bound, per cent of control (ICK (human))?
**A.** 39%

**Q.** What about the kinase still bound, per cent of control (RIOK1 (human)) of the same molecule?
**A.** 100%

**Q.** What about the kinase still bound, per cent of control [2] of the same molecule?
**A.** 100%

**Q.** And the kinase still bound, per cent of control (TNK1 (human))?
**A.** 80%

**Q.** What about the kinase still bound, per cent of control (NTRK1 (human)) of the same molecule?
**A.** 100%

**Q.** What about the kinase still bound, per cent of control (FER (human)) of the same molecule?
**A.** 100%

**Q.** And the kinase still bound, per cent of control (EPHA7 (human))?
**A.** 100%

**Q.** And the kinase still bound, per cent of control (EPHA2 (human))?
**A.** 96%

**Q.** And the kinase still bound, per cent of control (MAPK9 (human))?
**A.** 87%

**Q.** And the kinase still bound, per cent of control (MAP3K11 (human))?
**A.** 54%

**Q.** And the kinase still bound, per cent of control (SIK3 (human))?
**A.** 84%

**Q.** What about the kinase still bound, per cent of control (MAP3K10 (human)) of the same molecule?
**A.** 76%

**Q.** And the kinase still bound, per cent of control (NTRK3 (human))?
**A.** 100%

**Q.** What about the kinase still bound, per cent of control (CDK16 (human)) of the same molecule?
**A.** 39%

**Q.** And the kinase still bound, per cent of control (DAPK3 (human))?
**A.** 83%

**Q.** And the kinase still bound, per cent of control (PIK3CA (human))?
**A.** 100%

**Q.** What about the kinase still bound, per cent of control (AKT3 (human)) of the same molecule?
**A.** 100%

**Q.** And the kinase still bound, per cent of control (MAP3K3 (human))?
**A.** 100%

**Q.** And the kinase still bound, per cent of control (PRKD3 (human))?
**A.** 88%

**Q.** What about the kinase still bound, per cent of control (MYLK3 (human)) of the same molecule?
**A.** 78%

**Q.** And the kinase still bound, per cent of control (CDK7 (human))?
**A.** 64%

**Q.** What about the kinase still bound, per cent of control (MERTK (human)) of the same molecule?
**A.** 100%

**Q.** And the kinase still bound, per cent of control (STK38L (human))?
**A.** 100%

**Q.** What about the kinase still bound, per cent of control (DYRK2 (human)) of the same molecule?
**A.** 68%

**Q.** And the kinase still bound, per cent of control (GSK3A (human))?
**A.** 0%

**Q.** What about the kinase still bound, per cent of control (NEK2 (human)) of the same molecule?
**A.** 72%

**Q.** And the kinase still bound, per cent of control (BMPR1B (human))?
**A.** 92%

**Q.** `Cn1cc(C2=C(c3ccc(Cl)cc3Cl)C(=O)NC2=O)c2ccccc21` was tested. Which kinase still bound, per cent of control (CDKL5 (human)) did it give?
**A.** 100%

**Q.** And the kinase still bound, per cent of control (CDK11B (human))?
**A.** 100%

**Q.** What about the kinase still bound, per cent of control [1] of the same molecule?
**A.** 90%

**Q.** And the kinase still bound, per cent of control (GSK3B (human))?
**A.** 2%

**Q.** What about the kinase still bound, per cent of control (CSNK2A1 (human)) of the same molecule?
**A.** 35%

**Q.** What about the kinase still bound, per cent of control (FGFR3 (human)) of the same molecule?
**A.** 97%

**Q.** What about the kinase still bound, per cent of control (HIPK4 (human)) of the same molecule?
**A.** 14%

**Q.** And the kinase still bound, per cent of control (CSNK1E (human))?
**A.** 49%

**Q.** And the kinase still bound, per cent of control (SRC (human))?
**A.** 100%

**Q.** And the kinase still bound, per cent of control (CAMK2D (human))?
**A.** 56%

**Q.** What about the kinase still bound, per cent of control (MAP2K6 (human)) of the same molecule?
**A.** 57%

**Q.** What about the kinase still bound, per cent of control (CSNK1G2 (human)) of the same molecule?
**A.** 100%

**Q.** What about the kinase still bound, per cent of control (WEE1 (human)) of the same molecule?
**A.** 80%

**Q.** What about the kinase still bound, per cent of control (SIK1 (human)) of the same molecule?
**A.** 90%

**Q.** What about the kinase still bound, per cent of control (PTK2 (human)) of the same molecule?
**A.** 84%

**Q.** And the kinase still bound, per cent of control (ICK (human))?
**A.** 12%

**Q.** And the kinase still bound, per cent of control (RIOK1 (human))?
**A.** 79%

**Q.** And the kinase still bound, per cent of control [2]?
**A.** 90%

**Q.** What about the kinase still bound, per cent of control (TNK1 (human)) of the same molecule?
**A.** 88%

**Q.** What about the kinase still bound, per cent of control (NTRK1 (human)) of the same molecule?
**A.** 77%

**Q.** What about the kinase still bound, per cent of control (FER (human)) of the same molecule?
**A.** 100%

**Q.** What about the kinase still bound, per cent of control (EPHA7 (human)) of the same molecule?
**A.** 95%

**Q.** What about the kinase still bound, per cent of control (EPHA2 (human)) of the same molecule?
**A.** 100%

**Q.** And the kinase still bound, per cent of control (MAPK9 (human))?
**A.** 59%

**Q.** What about the kinase still bound, per cent of control (MAP3K11 (human)) of the same molecule?
**A.** 100%

**Q.** What about the kinase still bound, per cent of control (SIK3 (human)) of the same molecule?
**A.** 86%

**Q.** And the kinase still bound, per cent of control (MAP3K10 (human))?
**A.** 100%

**Q.** What about the kinase still bound, per cent of control (NTRK3 (human)) of the same molecule?
**A.** 62%

**Q.** What about the kinase still bound, per cent of control (CDK16 (human)) of the same molecule?
**A.** 0.2%

**Q.** And the kinase still bound, per cent of control (DAPK3 (human))?
**A.** 69%

**Q.** What about the kinase still bound, per cent of control (PIK3CA (human)) of the same molecule?
**A.** 92%

**Q.** And the kinase still bound, per cent of control (AKT3 (human))?
**A.** 100%

**Q.** And the kinase still bound, per cent of control (MAP3K3 (human))?
**A.** 88%

**Q.** What about the kinase still bound, per cent of control (PRKD3 (human)) of the same molecule?
**A.** 78%

**Q.** And the kinase still bound, per cent of control (MYLK3 (human))?
**A.** 90%

**Q.** And the kinase still bound, per cent of control (CDK7 (human))?
**A.** 43%

**Q.** And the kinase still bound, per cent of control (MERTK (human))?
**A.** 100%

**Q.** What about the kinase still bound, per cent of control (STK38L (human)) of the same molecule?
**A.** 100%

**Q.** What about the kinase still bound, per cent of control (DYRK2 (human)) of the same molecule?
**A.** 83%

**Q.** What about the kinase still bound, per cent of control (GSK3A (human)) of the same molecule?
**A.** 0%

**Q.** And the kinase still bound, per cent of control (NEK2 (human))?
**A.** 85%

**Q.** What about the kinase still bound, per cent of control (BMPR1B (human)) of the same molecule?
**A.** 86%
